Values after ≈ are worked out from the molar mass of the structure shown. Values joined by “and” are separate entries in the source; they are usually repeats but may differ in a detail not shown here. Identical values can stand only once. Like-named read-outs stand apart in the source and are kept apart here.
Columns and labels:
M. marinum 6423 = assay: Antimycobacterial activity, agar dilution MIC; type: cell-based
[1] = test system: intracellular M. tuberculosis; assay: Inhibitory activity on intramacrophagic mycobacteria (J774.A1 murine macrophages); type: cell-based; settings: after 6 days of treatment
M. smegmatis 103599 = assay: Antimycobacterial activity, agar dilution MIC; type: cell-based
M. avium 103317 = assay: Antimycobacterial activity, agar dilution MIC; type: cell-based
in vitro = settings: African green monkey
M. tuberculosis 103471 = assay: Antimycobacterial activity, twofold agar dilution MIC; type: cell-based; settings: for M. tuberculosis 103471 MIC: Middlebrook 7H11 agar; for MIC: Mycobacterium tuberculosis, 103471, Middlebrook 7H11 agar
Method: (§1) Compounds 3a-h were preliminarily assayed against two freshly isolated clinical strains, M. fortuitum CA10 and M. tuberculosis B814, according to the dilution method in agar (Hawkins et al., 1991).
(§2) Growth media were Mueller-Hinton (Difco) containing 10% of OADC (oleic acid, albumine and dextrose complex) for M. fortuitum and Middlebrook 7H11 agar (Difco) with 10% of OADC for M. tuberculosis. Substances were tested at the single dose of 100 μg/mL. The active compounds were then assayed for inhibitory activity against a variety of mycobacterium strains in Middlebrok 7H11 agar by a standard twofold agar dilution method. The mycobacterium species used for biological tests were M. tuberculosis […], M. tuberculosis H37Rv, M. tuberculosis INH-R ATCC, M. tuberculosis RMP-R ATCC and, among atypical mycobacteria, M. smegmatis 103599, M. marinum 6423 and M. avium 103317 (from the Institute Pasteur collection). Plates were incubated at 37° C. for 3 or 28 days. BM212, INH, SM and RIF were used as reference compounds. After cultivation, MICs were read as minimal concentrations of drugs completely inhibiting visible growth of mycobacteria.

atypical mycobacteria = assay: Antimycobacterial activity toward atypical mycobacteria; type: cell-based; settings: M. avium, M. marinum, M. smegmatis together
Method: as §2

M. tuberculosis H37Rv = assay: Antimycobacterial activity, twofold agar dilution MIC; type: cell-based; settings: Middlebrook 7H11 agar; for MIC: Mycobacterium tuberculosis, H37RV
Method: as §1, §2

Vero cells = settings: MTT after 72 h
[2] = Mycobacterium marinum, 6423; read-out: M. marinum 6423 MIC
[3] = Mycolicibacterium smegmatis, 103599; read-out: M. smegmatis 103599 MIC
[4] = Mycobacterium avium, 103317; Table 7 head prints strain 103471; read-out: M. avium 103471 MIC
[5] = Mycobacterium avium, 103317; read-out: M. avium 103317 MIC
[6] = Table 7 head prints strain 103471

Structure (SMILES)	MIC (M. marinum 6423; [2]) [µg/mL]	MIC (M. smegmatis 103599; [3]) [µg/mL]	MIC (M. avium 103317; [4]) [µg/mL]	MIC (M. avium 103317; [5]) [µg/mL]	CC50 (in vitro) [µg/mL]	M. tuberculosis 103471 MIC (M. tuberculosis 103471)	MIC (M. tuberculosis 103471) [µg/mL]	MIC (M. tuberculosis H37Rv) [µg/mL]	CC50 VERO cells (Vero cells) [µg/mL]	M. avium 103471 MIC (M. avium 103317; [6]) [µg/mL]	M. tuberculosis H37Rv MIC (M. tuberculosis H37Rv) [µg/mL]	further results
Cc1c(CN2CCN(C)CC2)cc(-c2ccc(Cl)cc2)n1-c1ccc(Cl)cc1 [BM 212, 1-{[1,5-bis(4-chlorophenyl)-2-methyl-1H-pyrrol-3-yl]methyl}-4-methylpiperazine]	100 (≈ 241 µM)	25 (≈ 60.3 µM)	0.4 (≈ 0.965 µM)	0.4 (≈ 0.965 µM)	4 (≈ 9.65 µM)	0.7 µg/mL	0.7 (≈ 1.69 µM)					% of growth reduction respect to untreated controls, intracellular M. tuberculosis ([1]; concentration 0.125 μg/ml): 0%; % of growth reduction respect to untreated controls, intracellular M. tuberculosis ([1]; concentration 0.25 μg/ml): 29.41%; % of growth reduction respect to untreated controls, intracellular M. tuberculosis ([1]; concentration 0.5 μg/ml): 32.35%; % of growth reduction respect to untreated controls, intracellular M. tuberculosis ([1]; concentration 1 μg/ml): 51.76%
CSc1ccc(-c2cc(CN3CCSCC3)c(C)n2-c2ccc(F)cc2)cc1 [Compound 3a, N-(4-fluorophenyl)-2-methyl-3-thiomorpholinomethyl-5-(4-methylsulfanylphenyl)pyrrole]	8 (≈ 19.4 µM)	16 (≈ 38.8 µM)	8 (≈ 19.4 µM)	8 (≈ 19.4 µM)	> 128	0.125 µg/mL and <0.125 µg/mL	< 0.125	0.125 (≈ 0.303 µM)				activity toward atypical mycobacteria (MIC range) (atypical mycobacteria): 8 to 16 µg/mL; % of growth reduction respect to untreated controls, intracellular M. tuberculosis ([1]; concentration 0.125 μg/ml): 96.12%; % of growth reduction respect to untreated controls, intracellular M. tuberculosis ([1]; concentration 0.25 μg/ml): 99.02%; % of growth reduction respect to untreated controls, intracellular M. tuberculosis ([1]; concentration 0.5 μg/ml): 99.72%; % of growth reduction respect to untreated controls, intracellular M. tuberculosis ([1]; concentration 1 μg/ml): 99.81%
CSc1ccc(-c2cc(CN3CCSCC3)c(C)n2-c2ccc(C)cc2)cc1 [Compound 3b]						0.25 µg/mL			18.40 (≈ 45 µM)	16	0.25	
CCc1ccc(-n2c(-c3ccc(SC)cc3)cc(CN3CCSCC3)c2C)cc1 [Compound 3c]						0.25 µg/mL			17.18 (≈ 40.6 µM)	>16	0.25	
CCCc1ccc(-n2c(-c3ccc(SC)cc3)cc(CN3CCSCC3)c2C)cc1 [Compound 3d]						0.125 µg/mL			25.25 (≈ 57.8 µM)	8	0.5	
CSc1ccc(-c2cc(CN3CCSCC3)c(C)n2-c2ccc(C(C)C)cc2)cc1 [Compound 3e]						0.125 µg/mL			37.58 (≈ 86.1 µM)	8	0.5	
CSc1ccc(-c2cc(CN3CCN(C)CC3)c(C)n2-c2ccc(F)cc2)cc1 [Compound 3f]						2 µg/mL			9.33 (≈ 22.8 µM)	4	2	
CSc1ccc(-c2cc(CN3CCCCC3)c(C)n2-c2ccc(F)cc2)cc1 [Compound 3g]						8 µg/mL						
CSc1ccc(-c2cc(CN3CCOCC3)c(C)n2-c2ccc(F)cc2)cc1 [Compound 3h]						0.25 µg/mL			44.34 (≈ 112 µM)	16	0.5	
NNC(=O)c1ccncc1 [Isoniazid, INH, Isoniazid, reference compound]					32 (≈ 233 µM)		0.125 (≈ 0.911 µM)	0.25 (≈ 1.82 µM)				MIC (M. marinum 6423; Mycobacterium marinum, 6423, read-out: M. marinum 6423 MIC): 16 µg/mL (≈ 117 µM); MIC (M. smegmatis 103599; Mycolicibacterium smegmatis, 103599, read-out: M. smegmatis 103599 MIC): 64 µg/mL (≈ 467 µM); MIC (M. avium 103317; Mycobacterium avium, 103317, read-out: M. avium 103317 MIC): 32 µg/mL (≈ 233 µM); MIC (M. avium 103317; Mycobacterium avium, 103317, read-out: M. avium 103471 MIC): 32 µg/mL (≈ 233 µM)
CO[C@H]1/C=C/O[C@@]2(C)Oc3c(C)c(O)c4c(O)c(c(/C=N/N5CCN(C)CC5)c(O)c4c3C2=O)NC(=O)/C(C)=C\C=C\[C@H](C)[C@H](O)[C@@H](C)[C@@H](O)[C@@H](C)[C@H](OC(C)=O)[C@@H]1C [Rifampicin, RIF, Rifampicin]	0.6 (≈ 0.729 µM)	32 (≈ 38.9 µM)	0.3 (≈ 0.365 µM)	0.3 (≈ 0.365 µM)	> 64		0.25 (≈ 0.304 µM)	0.8 (≈ 0.972 µM)				% of growth reduction respect to untreated controls, intracellular M. tuberculosis ([1]; concentration 0.125 μg/ml): 96.59%; % of growth reduction respect to untreated controls, intracellular M. tuberculosis ([1]; concentration 0.25 μg/ml): 99.83%; % of growth reduction respect to untreated controls, intracellular M. tuberculosis ([1]; concentration 0.5 μg/ml): 99.93%; % of growth reduction respect to untreated controls, intracellular M. tuberculosis ([1]; concentration 1 μg/ml): 99.97%
[H]/N=C(/N)N[C@H]1[C@H](O)[C@@H](O)[C@H](O[C@@H]2O[C@@H](C)[C@](O)(C=O)[C@H]2O[C@@H]2O[C@@H](CO)[C@H](O)[C@@H](O)[C@@H]2NC)[C@@H](N/C(N)=N\[H])[C@@H]1O [Streptomycin, SM, Streptomycin, reference compound]	32 (≈ 55 µM)	8 (≈ 13.8 µM)	8 (≈ 13.8 µM)	8 (≈ 13.8 µM)	64 (≈ 110 µM)	0.3 µg/mL	0.3 (≈ 0.516 µM)	0.5 (≈ 0.86 µM)				

From patent publication US8304410B2, “Pyrrole compounds as inhibitors of mycobacteria, synthesis thereof and intermediates thereto” (priority 2007, dated 2012)
